Source: article PMC6916368, “Cell‐Based Optimization of Covalent Reversible Ketoamide Inhibitors Bridging the Unprimed to the Primed Site of the Proteasome β5 Subunit” (Chemmedchem, 2019)
Like-named read-outs stand apart in the source and are kept apart here. Peptide text beside a SMILES is read from it. * marks the point of attachment. Cbz = O=C(OCc1ccccc1)*; OtBu = CC(C)(C)O*

How the values were obtained:
[1] = biological target: T1, β5c subunit of isolated human 20S proteasome (Homo sapiens, UniProt P28074); assay: Proteasome inhibition assay (20 S Proteasome Assay Kit, Suc‐LLVY‐AMC); format: biochemical; settings: for inhibition at 1 µM: read-out: Inhibition cCP β5; for inhibition at 0.1 µM: read-out: Rel. Inhibition β5c
T1 construct: purchased Enzo Life Sciences
Experimental: (§1) Proteasome inhibition assay. […] The 20 S Proteasome Assay Kit for Drug Discovery was used according to the supplier's protocol using Suc‐LLVY‐AMC (β5), Bz‐VGR‐AMC (β2) or Z‐LLE‐AMC (β1) as substrates (Enzo Life Sciences). Single point measurements of residual activity of proteasome activity were performed at a final concentration of 100 nM (n=3, β5c, β5i) or 1 μM (n=1, β1c, β2c, β5c, β5i, SI chapter 2a, Table S1). […] Inhibitors were prepared in 2‐fold concentration (cfinal=100 nM) and added to proteasomes (mfinal=200 ng/well). After 30 min incubation, substrate was added (cfinal=100 μM), incubated for 60 minutes and fluorescence was read using a Tecan M1000 microplate reader. […] IC50 values were determined from technical duplicates as mean value of three independent experiments.

[2] = biological target: T2, β5i subunit of isolated human 20S proteasome (Homo sapiens, UniProt P28062); assay: as above; format: biochemical; settings: for inhibition at 1 µM: c = 1 µM, n=1, read-out: Inhibition iCP β5; for inhibition at 0.1 µM: c=100 nM, read-out: Rel. Inhibition β5i
T2 construct: purchased Enzo Life Sciences
Experimental: as §1

[3] = biological target: T3, β1c subunit of isolated human 20S proteasome (Homo sapiens, UniProt P28072); assay: Proteasome inhibition assay (20 S Proteasome Assay Kit, Z‐LLE‐AMC); format: biochemical; settings: read-out: Inhibition cCP β1
T3 construct: purchased Enzo Life Sciences
Experimental: as §1

MV4‐11 cells = assay: Cell viability endpoint assay (Celltiter Blue, 72 h); format: cell-based; settings: Homo sapiens, MV4-11, mean±SD from two independent experiments
Experimental: Cell lines. MV4‐11 (ACC 102), Jurkat (ACC 282) and THP‐1 (ACC 16) cells were obtained from DSMZ and maintained at 37 °C and 5 % CO2 at densities between 0.2–1×10^6 cells per mL in RMPI‐1640 medium supplemented with 10 % FBS, L‐glutamine (2 mM) and penicillin/streptomycin.
Cell viability endpoint assay. For the determination of cytotoxicity of proteasome inhibitors 50.000 cells per well were plated in 90 μl RPMI‐1640 medium supplemented with 0.1 % FBS and incubated overnight at 37 °C and 5 % CO2. Inhibitors were serially diluted in RPMI‐1640 medium as 10‐fold stocks and added to cells giving the final concentration (1 nM to 10 μM, Figure S2–S4) and incubated for 72 h at 37 °C and 5 % CO2. Cell viability was determined using the Celltiter Blue assay (Promega) by adding 20 μl of reagent, incubation for 120 minutes at 37 °C and 5 % CO2 and fluorescent read‐out using a Tecan M1000 microplate reader. Dose‐response curves were fitted to the equation “Y=Bottom+(Top‐Bottom)/(1+10^(X−L°^gIC50))” using GraphPad Prism 7.02. IC50 values are determined from technical triplicates as mean value of two independent experiments. Standard deviations (Table S1) as well as dose response curves (SI chapter 2b) are given in the supplementary information.

[4] = biological target: T4, β2c subunit of isolated human 20S proteasome (Homo sapiens, UniProt Q99436); assay: Proteasome inhibition assay (20 S Proteasome Assay Kit, Bz‐VGR‐AMC); format: biochemical; settings: c = 1 µM, n=1; read-out: Inhibition cCP β2
T4 construct: purchased Enzo Life Sciences
Experimental: Proteasome inhibition assay. Bortezomib (Selleckchem) and carfilzomib (MedChemExpress) were purchased and used without further purification. The 20 S Proteasome Assay Kit for Drug Discovery was used according to the supplier's protocol using Suc‐LLVY‐AMC (β5), Bz‐VGR‐AMC (β2) or Z‐LLE‐AMC (β1) as substrates (Enzo Life Sciences). Single point measurements of residual activity of proteasome activity were performed at a final concentration of 100 nM (n=3, β5c, β5i) or 1 μM (n=1, β1c, β2c, β5c, β5i, SI chapter 2a, Table S1). […] Inhibitors were prepared in 2‐fold concentration (cfinal=100 nM) and added to proteasomes (mfinal=200 ng/well). After 30 min incubation, substrate was added (cfinal=100 μM), incubated for 60 minutes and fluorescence was read using a Tecan M1000 microplate reader. Dose‐response curves were fitted to the equation Y=100/(1+10^((L°^gIC50−X)*HillSl°^pe)) using GraphPad Prism 7.02. IC50 values were determined from technical duplicates as mean value of three independent experiments.

SMILES	inhibition at 1 µM ([1]; c = 1 µM, n=1) [%]	inhibition at 0.1 µM ([1]; c=100 nM) [%]	inhibition at 1 µM [2] [%]	inhibition at 0.1 µM [2] [%]	inhibition at 1 µM ([3]; c = 1 µM, n=1) [%]	IC50 (MV4‐11 cells) [nM]	inhibition at 1 µM [4] [%]	inhibition at 1 µM [1] [%]	inhibition at 0.1 µM [1] [%]	inhibition at 1 µM [3] [%]
CC(C)C[C@@H](C=O)NC(=O)[C@H](CC(C)C)NC(=O)[C@H](CC(C)C)NC(=O)OCc1ccccc1 [Compound 4, MG132, reference compound] (Cbz-Leu-Leu-Leu-aldehyde)						131 ± 12	21	82	43	27
Cc1cc(C)c(Oc2ccccc2)cc1NC(=O)C(=O)[C@H](CC(C)C)NC(=O)[C@H](CC(C)C)NC(=O)[C@H](CC(C)C)NC(=O)OCc1ccccc1 [Compound 11, Benzyl((S)‐1‐(((S)‐1‐(((S)‐1‐((2,4‐dimethyl‐5‐phenoxyphenyl)amino)‐5‐methyl‐1,2‐dioxo‐hexan‐3‐yl)amino)‐4‐methyl‐1‐oxopentan‐2‐yl)amino)‐4‐methyl‐1‐oxopentan‐2‐yl)carbama‐te]	59	46	10	12	-10	19 ± 1	10			
CC(C)C[C@@H](C=O)NC(=O)[C@H](CC(=O)OC(C)(C)C)NC(=O)[C@H](CC(C)C)NC(=O)OCc1ccccc1 [Compound 5, BSc2118, reference compound] (Cbz-Leu-Asp(OtBu)-Leu-aldehyde)	90	54	72	11	16	123 ± 12	4			
CC(C)C[C@H](NC(=O)OCc1ccccc1)C(=O)N[C@@H](CC(C)C)C(=O)N[C@@H](CC(C)C)C(=O)C(=O)Nc1ccc(Oc2ccccc2)cc1 [Compound 10, Benzyl‐((S)‐4‐methyl‐1‐(((S)‐4‐methyl‐1‐(((S)‐5‐methyl‐1,2‐dioxo‐1‐((4‐phenoxyphenyl)‐amino)hexan‐3‐yl)amino)‐1‐oxopentan‐2‐yl)amino)‐1‐oxopentan‐2‐yl)carbamate]	63	25	23	5	-3	45 ± 3	2			
Cc1ccc(NC(=O)C(=O)[C@H](CC(C)C)NC(=O)[C@H](CC(C)C)NC(=O)[C@H](CC(C)C)NC(=O)OCc2ccccc2)cc1Oc1ccccc1 [Compound 13, Benzyl((S)‐4‐methyl‐1‐(((S)‐4‐methyl‐1‐(((S)‐5‐methyl‐1‐((4‐methyl‐3‐phenoxyphenyl)‐amino)‐1,2‐dioxohexan‐3‐yl)amino)‐1‐oxopentan‐2‐yl)amino)‐1‐oxopentan‐2‐yl)carbamate]	69	49	15	28	-4	23 ± 2	4			

More lines, main results first:

inhibition at 1 µM ([1]; c = 1 µM, n=1) [%]	inhibition at 0.1 µM ([1]; c=100 nM) [%]	inhibition at 1 µM [2] [%]	inhibition at 0.1 µM [2] [%]	inhibition at 1 µM ([3]; c = 1 µM, n=1) [%]	IC50 (MV4‐11 cells) [nM]	inhibition at 1 µM [4] [%]	SMILES	inhibition at 1 µM [1] [%]	inhibition at 0.1 µM [1] [%]	inhibition at 1 µM [3] [%]
78	41	30	29	-10	27 ± 8	5	Cc1c(NC(=O)C(=O)[C@H](CC(C)C)NC(=O)[C@H](CC(C)C)NC(=O)[C@H](CC(C)C)NC(=O)OCc2ccccc2)cccc1Oc1ccccc1 [Compound 14, Benzyl((S)‐4‐methyl‐1‐(((S)‐4‐methyl‐1‐(((S)‐5‐methyl‐1‐((2‐methyl‐3‐phenoxyphenyl)‐amino)‐1,2‐dioxohexan‐3‐yl)amino)‐1‐oxopentan‐2‐yl)amino)‐1‐oxopentan‐2‐yl)carbamate]			
51	25	24	4	-38	25 ± 5	17	Cc1ccc(NC(=O)C(=O)[C@H](CC(C)C)NC(=O)[C@H](CC(C)C)NC(=O)[C@H](CC(C)C)NC(=O)c2cc(Cl)ccc2Cl)c(C)c1 [Compound 26, 2,5‐Dichloro‐N‐((S)‐1‐(((S)‐1‐(((S)‐1‐((2,4‐dimethylphenyl)amino)‐5‐methyl‐1,2‐dioxohexan‐3‐yl)amino)‐4‐methyl‐1‐oxopentan‐2‐yl)amino)‐4‐methyl‐1‐oxopentan‐2‐yl)‐benzamide]			
88	43	69	36	11	46 ± 1	-10	Cc1ccc(NC(=O)C(=O)[C@H](CC(C)C)NC(=O)[C@H](CC(=O)OC(C)(C)C)NC(=O)[C@H](CC(C)C)NC(=O)OCc2ccccc2)c(C)c1 [Compound 17, tert ‐Butyl‐(S)‐3‐((S)‐2‐(((benzyloxy)carbonyl)amino)‐4‐methylpentanamido)‐4‐(((S)‐1‐((2,4‐dime‐thylphenyl)amino)‐5‐methyl‐1,2‐dioxohexan‐3‐yl)amino)‐4‐oxobutanoate]			
84	53	31	43	-15	36 ± 5	9	CC(C)C[C@H](NC(=O)OCc1ccccc1)C(=O)N[C@@H](CC(=O)OC(C)(C)C)C(=O)N[C@@H](CC(C)C)C(=O)C(=O)Nc1cccc(Oc2ccccc2)c1 [Compound 19, tert ‐Butyl‐(S)‐3‐((S)‐2‐(((benzyloxy)carbonyl)amino)‐4‐methylpentanamido)‐4‐(((S)‐5‐methyl‐1,2‐dioxo‐1‐((3‐phenoxyphenyl)amino)hexan‐3‐yl)amino)‐4‐oxobutanoate]			
81	26	52	35	-10	47 ± 5	6	Cc1ccc(NC(=O)C(=O)[C@H](CC(C)C)NC(=O)[C@H](CC(=O)OC(C)(C)C)NC(=O)[C@H](CC(C)C)NC(=O)c2cc(Cl)ccc2Cl)c(C)c1 [Compound 28, tert ‐Butyl (S)‐3‐((S)‐2‐(2,5‐dichlorobenzamido)‐4‐methylpentanamido)‐4‐(((S)‐1‐((2,4‐dimethyl‐phenyl)amino)‐5‐methyl‐1,2‐dioxohexan‐3‐yl)amino)‐4‐oxobutanoate]			
91	57	76	48	12	46 ± 6	-8	CC(C)C[C@H](NC(=O)OCc1ccccc1)C(=O)N[C@@H](CC(=O)OC(C)(C)C)C(=O)N[C@@H](CC(C)C)C(=O)C(=O)Nc1ccccc1 [Compound 16, tert ‐Butyl‐(S)‐3‐((S)‐2‐(((benzyloxy)carbonyl)amino)‐4‐methylpentanamido)‐4‐(((S)‐5‐methyl‐1,2‐dioxo‐1‐(phenylamino)hexan‐3‐yl)amino)‐4‐oxobutanoate]			
75	26	48	19	-2	16 ± 1	9	Cc1ccc(Oc2ccccc2)cc1NC(=O)C(=O)[C@H](CC(C)C)NC(=O)[C@H](CC(C)C)NC(=O)[C@H](CC(C)C)NC(=O)OCc1ccccc1 [Compound 15, Benzyl((S)‐4‐methyl‐1‐(((S)‐4‐methyl‐1‐(((S)‐5‐methyl‐1‐((2‐methyl‐5‐phenoxyphenyl)‐amino)‐1,2‐dioxohexan‐3‐yl)amino)‐1‐oxopentan‐2‐yl)amino)‐1‐oxopentan‐2‐yl)carbamate]			
